According to ChEMBL document CHEMBL3102755, “Diphenylpropane Derivatives as Agonist of PPAR Nuclear Receptors” (ACS Med Chem Lett, 2013):
Activity calls are given as the source filed them. The rule behind the calls is not given here.

How the values were obtained:
[1] = molecular target: T1, Peroxisome proliferator-activated receptor gamma (Homo sapiens, UniProt P37231); experiment: Agonist activity at human PPARgamma ligand binding domain expressed in monkey COS7 cells cotransfected with Gal4 by luciferase reporter gene assay; format: cell-based, COS-7
T1 sequence (P37231 whole entry): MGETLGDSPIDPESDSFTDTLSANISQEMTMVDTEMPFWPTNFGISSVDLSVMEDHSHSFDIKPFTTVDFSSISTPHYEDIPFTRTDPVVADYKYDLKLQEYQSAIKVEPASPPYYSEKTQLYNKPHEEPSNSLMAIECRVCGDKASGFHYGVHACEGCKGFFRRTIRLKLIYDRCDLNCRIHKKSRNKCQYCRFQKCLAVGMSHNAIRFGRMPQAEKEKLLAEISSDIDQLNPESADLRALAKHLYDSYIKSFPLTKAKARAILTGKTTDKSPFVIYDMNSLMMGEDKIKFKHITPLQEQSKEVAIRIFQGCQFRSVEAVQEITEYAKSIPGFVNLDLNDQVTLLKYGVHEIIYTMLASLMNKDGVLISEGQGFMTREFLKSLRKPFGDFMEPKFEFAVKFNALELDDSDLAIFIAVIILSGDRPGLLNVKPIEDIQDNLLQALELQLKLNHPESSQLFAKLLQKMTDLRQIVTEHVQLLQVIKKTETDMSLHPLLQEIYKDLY

[2] = molecular target: T2, Peroxisome proliferator-activated receptor delta (Homo sapiens, UniProt Q03181); experiment: Agonist activity at human PPARdelta ligand binding domain expressed in monkey COS7 cells cotransfected with Gal4 by luciferase reporter gene assay; format: cell-based, COS-7
T2 sequence (Q03181 whole entry): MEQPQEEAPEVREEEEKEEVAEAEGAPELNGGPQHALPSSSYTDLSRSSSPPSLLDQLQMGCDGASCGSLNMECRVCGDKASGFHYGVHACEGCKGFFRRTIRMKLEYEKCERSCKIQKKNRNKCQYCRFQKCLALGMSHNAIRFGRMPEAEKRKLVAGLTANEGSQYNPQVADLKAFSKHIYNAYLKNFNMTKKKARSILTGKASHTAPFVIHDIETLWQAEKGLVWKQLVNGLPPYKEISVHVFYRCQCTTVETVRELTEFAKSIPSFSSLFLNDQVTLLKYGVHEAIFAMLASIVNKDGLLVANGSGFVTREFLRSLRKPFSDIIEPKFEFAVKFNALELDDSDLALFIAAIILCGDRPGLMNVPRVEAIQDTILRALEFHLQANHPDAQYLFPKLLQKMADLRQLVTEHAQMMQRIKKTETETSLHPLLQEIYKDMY

[3] = molecular target: T3, Peroxisome proliferator-activated receptor alpha (Homo sapiens, UniProt Q07869); experiment: Agonist activity at human PPARalpha ligand binding domain expressed in monkey COS7 cells cotransfected with Gal4 by luciferase reporter gene assay; format: cell-based, COS-7
T3 sequence (Q07869 whole entry): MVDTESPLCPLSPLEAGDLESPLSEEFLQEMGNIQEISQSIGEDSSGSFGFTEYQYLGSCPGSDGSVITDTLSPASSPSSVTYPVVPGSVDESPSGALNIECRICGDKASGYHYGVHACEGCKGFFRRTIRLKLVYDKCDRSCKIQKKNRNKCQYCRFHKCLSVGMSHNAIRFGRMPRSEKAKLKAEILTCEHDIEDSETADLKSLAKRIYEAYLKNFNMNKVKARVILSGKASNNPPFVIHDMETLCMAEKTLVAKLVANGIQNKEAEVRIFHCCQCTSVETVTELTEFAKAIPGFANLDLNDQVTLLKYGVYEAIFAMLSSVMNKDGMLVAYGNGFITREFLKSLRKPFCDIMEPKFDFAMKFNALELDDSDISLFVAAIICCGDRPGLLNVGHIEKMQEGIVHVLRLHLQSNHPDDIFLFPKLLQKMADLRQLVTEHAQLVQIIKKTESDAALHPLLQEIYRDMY

[4] = tested on: Mus musculus; experiment: Cognitive enhancing effect in APPPS1 transgenic C57BL/6J mouse model at 1 to 10 mg/kg for 60 days by Morris-Water maze assay; format: functional, organism-based
[5] = Ratio of AUC (0 to 24 hrs) in brain to plasma in mouse at 2 mg/kg, iv and 10 mg/kg, po; format: ADME, organism-based; details: read-out: BPR
[6] = tested on: Mus musculus; experiment: Antialzheimer activity in APPPS1 transgenic C57BL/6J mouse model assessed as decrease in beta-amyloid accumulation in brain at 1 to 10 mg/kg; format: functional, organism-based

| Compound | EC50 [1] | EC50 [2] | EC50 [3] | Activity [4] | EC50 ([1]; cos-7) | Kp [5] | Activity [6] |
| --- | --- | --- | --- | --- | --- | --- | --- |
| Cc1cc(C2CC2C(OC(=O)c2ccccc2)c2ccc(OC(F)(F)F)cc2)cc(C)c1OC(C)(C)C(=O)O (single isomer, unassigned; diastereomer 1) | 116 nM | 79 nM | 21 nM | – | – | – | – |
| Cc1cc(C2CC2C(OC(=O)c2ccccc2)c2ccc(OC(F)(F)F)cc2)cc(C)c1OC(C)(C)C(=O)O (single isomer, unassigned; diastereomer 2) | 23 nM | 122 nM | 100 nM | – | – | – | – |
| COC(c1ccc(OC(F)(F)F)cc1)C1CC1c1cc(C)c(OC(C)(C)C(=O)O)c(C)c1 (single isomer, unassigned; enantiomer 1) | – | – | – | Active | 16 nM | 0.37 | Active |
